Measurements taken from article PMC7067379, “Mapping the S1 and S1’ subsites of cysteine proteases with new dipeptidyl nitrile inhibitors as trypanocidal agents” (PLoS Neglected Tropical Diseases, 2020).
Read-outs that look alike come from different tables or passages of the source.

Key:
cathepsin B (CatB) = cathepsin B (CatB) (Homo sapiens, UniProt P07858); test: Cathepsin B enzyme inhibition; type: biochemical; conditions: for remaining activity at 10 µM: replicates = 2, n.i. = no inhibition observed at 10 μM; for Ki: SD lower than 15%, read-out: pKi CatB (converted)
[1] = biological target: T1, Human recombinant cathepsin K (Homo sapiens, UniProt P43235); test: Cathepsin K assay; type: biochemical; conditions: for Ki: SD lower than 15%, read-out: pKi CatK (converted); for remaining activity at 10 µM: read-out: remaining activity (%) at 10 μM, CatK
T1 sequence (P43235 115-329): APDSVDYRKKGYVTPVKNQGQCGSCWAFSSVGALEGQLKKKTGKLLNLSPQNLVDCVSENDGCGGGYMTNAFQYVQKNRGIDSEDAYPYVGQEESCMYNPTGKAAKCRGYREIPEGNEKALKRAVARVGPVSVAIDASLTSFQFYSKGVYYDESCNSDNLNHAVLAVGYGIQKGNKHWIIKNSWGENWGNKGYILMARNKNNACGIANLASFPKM
Method: Human recombinant cathepsin K was assayed on a FLUOSTAR Optima plate reader at 25 °C with an excitation wavelength of 360 nm and an emission wavelength of 440 nm on a 96 well plate. The enzyme solution (23 μg/mL in 50 mM sodium acetate pH 5.5, 50 mM NaCl, 0.5 mM EDTA, 5 mM DTT) was diluted 1:100 with assay buffer (100 mM sodium citrate buffer pH 5.0, 100 mM NaCl, 1 mM EDTA, 0.01% CHAPS) containing 5 mM DTT and was then incubated at 37 °C for 30 min for activation. A 1.5 mM stock solution of the substrate Z-Leu-Arg-AMC was prepared in DMSO. […] The assay was performed with a final concentration of cathepsin K of 1.73 ng/mL. Stock solutions of inhibitors were prepared in DMSO. The final DMSO concentration was 2% (4 μL). Into a well containing 194.5 μL assay buffer, 0.8 μL of the fluorogenic substrate, DMSO and inhibitor solution (3.2 μL) were added. Upon addition of cathepsin K (1.5 μL), the measurement was started and followed for 20 min.

cathepsin L (CatL) = cathepsin L (CatL) (Homo sapiens, UniProt P07711); test: Cathepsin L enzyme inhibition; type: biochemical; conditions: for Ki: SD lower than 15%, read-out: pKi CatL (converted)
cathepsin S (CatS) = cathepsin S (CatS) (Homo sapiens, UniProt P25774); test: Cathepsin S enzyme inhibition; type: biochemical; conditions: SD lower than 15%; read-out: pKi CatS (converted)
Method: (§1) Enzyme inhibition studies for Cz and LmCPB were performed as previously described for Cz. The experimental procedures are described in the Supporting Information (see chapter S3). Cathepsins B, L, S were assayed as reported.

recombinant cruzain (Cz) = recombinant cruzain (Cz) (Trypanosoma cruzi, UniProt P25779); test: Cruzain enzyme inhibition; type: biochemical
Method: as §1

[2] = biological target: Leishmania mexicana CPB (LmCPB) (Leishmania mexicana, UniProt P36400); test: LmCPB enzyme inhibition; type: biochemical
Method: as §1

[3] = tested on: T. cruzi Tulahuen LacZ strain, intracellular amastigote forms; test: In vitro trypanocidal activity on intracellular amastigote forms (Tulahuen strain); type: cell-based, Trypanosoma cruzi; conditions: for EC50: Trypanosoma cruzi, TULAHUEN; for SI (selective index): from EC50 (T. cruzi) and CC50 (LLCMK2)
Method: Cells were evaluated in 96-well plates. Cells from the LLCMK2 lineage were plated at a concentration of 5x10^4 cells mL^-1. Trypomastigote forms of the Tulahuen LacZ strain were added at a concentration of 5×10^5 parasites mL^-1 and placed in the incubator at 37°C with 5% CO2 for 24 h. After the incubation period, the trypomastigote forms present were removed by successive washes with PBS, remaining only as intracellular amastigote forms. Compounds were added at different concentrations (1.95 μM to 250 μM serial dilutions) and incubated for 72 h. At the end of this period, the substrate CPRG (chlorophenol red β-D-galactopyranoside, 400 μM in 0.3% Triton X-100, pH 7.4) was added. […] Benznidazole was used as a positive control in the same concentrations as the substances, and DMSO as a negative control. Compounds were solubilized in DMSO. The selectivity index (SI) was calculated using the formula: […]. All statistical analyses were done with the program GraphPad Prism v.5.

[4] = Mammalian cytotoxicity assay (MTT); type: cell-based; conditions: rhesus monkey, LLCMK2 cells;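 note: Read-out is absorbance at 570 nm of formazan taken up in DMSO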
Method: LLCMK2 cells were cultured in 96-well plates at a concentration of 5 x 10^4 cells/ml. After 48 h, the plates were washed twice with PBS and 200 μL RPMI medium was added with serial dilutions of the compounds and benznidazole (1.95 μM to 250 μM) in triplicate. After 72 h at 37 °C, the cytotoxic activity of the compounds was determined by the classical MTT [3- (4,5-dimethylthiazol-2-yl) -2,5-diphenyltetrazolium bromide] method. Briefly, 50 μL MTT dissolved in PBS (2.0 mg mL^-1) was added to each well and the plates were incubated for 4 h at 37 °C. The formed formazan crystals were dissolved with DMSO (50 μL/well) and the absorbance of the samples was measured by spectrophotometer at 570 nm after 30 min.

[5] = SD lower than 15%, read-out: pKi Cz (converted)
[6] = SD lower than 15%, read-out: pKi LmCPB (converted)
[7] = 72 h, amastigote, Tulahuen strain, 72 h, Table 2, read-out: EC50 trypanocidal activity
[8] = T. cruzi amastigote form, S1 Table, read-out: pEC50 (converted)
[9] = LLCMK2, 72 h, MTT, Table 2, read-out: CC50 cytotoxicity
[10] = S1 Table, maximum concentration used 250 µM, read-out: CC50
[11] = read-out: EC50 T. cruzi, S1 Table, maximum concentration used 250 µM
[12] = read-out: pEC50, T. cruzi amastigote form (converted), S1 Table
[13] = 10 μM, replicates = 2, n.i. = no inhibition observed at 10 μM
[14] = S1 Table, maximum concentration used 250 µM, read-out: EC50 T. cruzi

Chain of recombinant cruzain (Cz) (P25779 123-337): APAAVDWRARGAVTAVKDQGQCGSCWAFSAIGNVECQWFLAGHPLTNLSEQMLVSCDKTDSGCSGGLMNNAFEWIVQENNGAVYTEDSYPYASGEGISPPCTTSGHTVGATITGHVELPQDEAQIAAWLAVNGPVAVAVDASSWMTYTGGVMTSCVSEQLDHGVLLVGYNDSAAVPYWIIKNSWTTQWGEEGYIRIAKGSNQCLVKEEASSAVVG
Chain of Leishmania mexicana CPB (LmCPB) (P36400 126-443): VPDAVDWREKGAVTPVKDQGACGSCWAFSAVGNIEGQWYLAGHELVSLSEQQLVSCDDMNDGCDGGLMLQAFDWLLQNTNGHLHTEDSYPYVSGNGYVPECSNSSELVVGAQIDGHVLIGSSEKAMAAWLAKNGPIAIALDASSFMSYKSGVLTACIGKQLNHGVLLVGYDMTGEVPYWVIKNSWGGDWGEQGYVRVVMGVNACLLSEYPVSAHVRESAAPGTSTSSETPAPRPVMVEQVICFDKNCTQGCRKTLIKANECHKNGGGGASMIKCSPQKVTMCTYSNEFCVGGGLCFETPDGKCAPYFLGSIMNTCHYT
Chain of cathepsin L (CatL) (P07711 114-333): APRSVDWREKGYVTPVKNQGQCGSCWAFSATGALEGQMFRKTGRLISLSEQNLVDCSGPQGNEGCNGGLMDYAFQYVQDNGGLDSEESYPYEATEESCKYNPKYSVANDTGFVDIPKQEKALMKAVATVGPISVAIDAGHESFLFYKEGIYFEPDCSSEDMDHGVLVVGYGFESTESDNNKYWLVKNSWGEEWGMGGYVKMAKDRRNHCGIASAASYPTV
Chain of cathepsin S (CatS) (P25774 115-331): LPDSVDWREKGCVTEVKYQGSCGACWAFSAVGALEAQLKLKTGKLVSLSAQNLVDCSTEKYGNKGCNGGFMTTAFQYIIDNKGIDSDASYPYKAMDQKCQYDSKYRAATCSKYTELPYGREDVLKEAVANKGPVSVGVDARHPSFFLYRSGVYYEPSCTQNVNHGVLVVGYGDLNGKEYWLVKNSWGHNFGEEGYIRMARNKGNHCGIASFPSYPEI

| Structure (SMILES) | Ki [1] [nM] | Ki (cathepsin L (CatL)) [nM] | Ki (cathepsin S (CatS)) [nM] | Ki (recombinant cruzain (Cz); [5]) [nM] | Ki [2, 6] [nM] | EC50 [3, 7] [nM] | EC50 [3, 8] [nM] | SI (selective index) ([3]; Table 2) | CC50 at 72 h [4, 9] [nM] | CC50 at 72 h [4, 10] [nM] | melting point [°C] | Ki (cathepsin B (CatB)) [nM] | EC50 [3, 11] [nM] | EC50 [3, 12] [nM] | also measured |
| --- | --- | --- | --- | --- | --- | --- | --- | --- | --- | --- | --- | --- | --- | --- | --- |
| CC(C)CC(C#N)NC(=O)[C@H](Cc1ccccc1)NC(=O)c1cc(C(C)(C)C)nn1C (stereo in doubt) [Compound 53, 3-(tert-Butyl)-N-((S)-1-(((S)-1-cyano-3-methylbutyl)amino)-1-oxo-3-phenylpropan-2-yl)-1-methyl-1H-pyrazole-5-carboxamide] | 1000 | 100 | 1000 | 316 | 398 | 26000 ± 2600 | 25100 | > 3.8 | > 100000 | 132000 | 91 to 94 | – | – | – | remaining activity at 10 µM (cathepsin B (CatB)): 90% |
| N#CC1(NC(=O)[C@H](Cc2cccc(Cl)c2)NC(=O)c2ccccc2)CC1 [Compound 7, (S)-N-(3-(3-Chlorophenyl)-1-((1-cyanocyclopropyl)amino)-1-oxopropan-2-yl)benzamide] | 631 | 50.1 | 20 | 126 | 631 | – | – | – | – | 4000 | 213 to 215 | 3160 | > 100000 | > 100000 | – |
| Cn1nc(C(C)(C)C)cc1C(=O)N[C@@H](Cc1cccc(Cl)c1)C(=O)NC1(C#N)CC1 [Compound 8, (S)-3-(tert-Butyl)-N-(3-(3-chlorophenyl)-1-((1-cyanocyclopropyl)amino)-1-oxopropan-2-yl)-1-methyl-1H-pyrazole-5-carboxamide] | 398 | 2.51 | 200 | 39.8 | 200 | – | – | – | – | > 100000 | 152 to 154 | 3980 | > 100000 | > 100000 | EC50 ([3]; amastigote forms of T. cruzi (Tuhaluen strain), Figs 12-14, unit inferred): > 100000 nM |
| C[C@@H](OCc1ccccc1)[C@H](NC(=O)c1cc(C(C)(C)C)nn1C)C(=O)NC1(C#N)CC1 [Compound 12, N-((2S,3R)-3-(Benzyloxy)-1-((1-cyanocyclopropyl)amino)-1-oxobutan-2-yl)-3-(tert-butyl)-1-methyl-1H-pyrazole-5-carboxamide] | – | 1260 | 1260 | 7940 | 3160 | 32700 ± 3860 | – | > 3.1 | > 100000 | – | 100 to 101 | 39800 | – | 31600 | remaining activity at 10 µM [1, 13]: 96% |
| N#CC1(NC(=O)[C@H](Cc2ccccc2)NC(=O)c2ccnc3cc(Cl)ccc23)CC1 [Compound 13, (S)-7-Chloro-N-(1-((1-cyanocyclopropyl)amino)-1-oxo-3-phenylpropan-2-yl)quinoline-4-carboxamide] | – | 63.1 | 200 | – | – | – | – | – | – | > 100000 | 260 to 262 | 12600 | > 100000 | > 100000 | remaining activity at 10 µM [1, 13]: 81%; Ki (recombinant cruzain (Cz)): 200 nM; Ki [2]: 126 nM |
| N#CC1(NC(=O)[C@H](Cc2c[nH]c3ccccc23)NC(=O)c2ccnc3cc(Cl)ccc23)CC1 [Compound 14, (S)-7-Chloro-N-(1-((1-cyanocyclopropyl)amino)-3-(1H-indol-3-yl)-1-oxopropan-2-yl)quinoline-4-carboxamide] | – | 2000 | 1000 | 631 | 2000 | – | – | – | – | > 100000 | 196 to 197 | 20000 | > 100000 | – | remaining activity (%) at 10 μM, CatK [1, 13]: n.i.^c |
| CC(C)C[C@H](NC(=O)c1ccnc2cc(Cl)ccc12)C(=O)NC1(C#N)CC1 [Compound 15, (S)-7-Chloro-N-(1-((1-cyanocyclopropyl)amino)-4-methyl-1-oxopentan-2-yl)quinoline-4-carboxamide] | 126 | 251 | 126 | 15.8 | 50.1 | – | 79400 | 1.14 | 73600 ± 8740 | > 100000 | 169 to 170 | – | – | – | remaining activity at 10 µM (cathepsin B (CatB)): 89%; difference in pKi, CatL (cathepsin L (CatL); relative to compound 11, sign not given, direction by cell colour or wording): 1.0; EC50 ([3]; 72 h, read-out: EC50 trypanocidal activity, amastigote, Tulahuen strain, 72 h, Table 2): 64700 ± 4320 nM; EC50 [3, 14]: 77300 nM |
| N#CC1(NC(=O)[C@H](Cc2ccccc2)NC(=O)c2cccc(OC(=O)c3ccccc3)c2)CC1 [Compound 16, (S)-3-((1-((1-Cyanocyclopropyl)amino)-1-oxo-3-phenylpropan-2-yl)carbamoyl)phenyl benzoate] | 631 | 501 | 50.1 | 126 | 100 | 47300 ± 3260 | 50100 | > 2.1 | > 100000 | – | 185 to 187 | 6310 | – | – | – |
| C[C@@H](O)[C@@H](C#N)NC(=O)[C@H](Cc1cccc(Cl)c1)NC(=O)c1cc(C(C)(C)C)nn1C [Compound 69, 3-(tert-butyl)-N-((S)-3-(3-chlorophenyl)-1-(((1R,2R)-1-cyano-2-hydroxypropyl)amino)-1-oxopropan-2-yl)-1-methyl-1H-pyrazole-5-carboxamide] | 794 | 6.31 | 251 | 126 | 1000 | 30600 ± 3110 | 31600 | – | > 100000 | – | – | 6310 | – | – | EC50 [3, 14]: 30500 nM |
